“Also recorded” adds a separate entry of the source. Counter-ions that a name gives are not always drawn. Each block holds one compound with its values, some of them ahead of it.
Assays:
Format in all cases: physicochemical
[1] = Oxidation/degradation during salt screening and salt preparation; conditions: for degradation during preparation: salt preparation / air-drying
Experimental: A salt/co-crystal screening was conducted under 127 conditions with 20 salt/co-crystal co-formers and seven solvent systems. For each condition, approximately 20 mg of Compound 1 was dispersed in the selected solvent in a glass vial and then salt/co-crystal co-former was added. Observation of slurries were followed by isolation and analysis of the resulting solids. Even though some crystalline solids were isolated and analyzed by XRPD, discoloration, possibly associated with decomposition was also observed (Table 1). Salt-screening experiments yielding a unique XRPD pattern were analyzed by HPLC-UV and were all determined to be primarily composed of degradants.
With the exception of the HBr salt, salt screening was unsuccessful in identifying further options for new forms of Compound 1 because of degradation. […] For example, solvent systems in which Compound 1 has limited solubility were chosen for formation of the HCl and sulfates salts to limit oxidation, while providing enough solubility to promote conversion to crystalline salts. However, this approach is time consuming and not favorable for large scale manufacturing methods.

[2] = Dynamic Vapor Sorption (DVS) moisture uptake
[3] = Solubility in re-slurry solvents
[4] = Slurry in acetone/water (1:1 v/v), hydrate stability at water activity; conditions: aw=0.91, acetone/water 1:1 v/v, slurried one week at ambient
From the text: Form D can also isolated from the amorphous bis-hydrogen bromide salt form of Compound 1 in a slurry experiment comprising acetone/water (1:1 v/v). For example, a saturated solution the amorphous bis-hydrogen bromide salt form om acetone/water (1:1 v/v) was slurried for one week at ambient and the solid was harvested to obtain Form D. The water activity (aw) of an equal volume mixture of acetone and water is 0.91. See SSCI internal report, Water Activity Calculations using UNIFAC Calculator, SR-20150515.01, dated Jul. 23, 2015. When solvent-free polymorphs are considered, the relative thermodynamic stability of two polymorphs is determined by the Gibbs free energy difference at a given temperature and pressure. However, when hydrate forms are considered, the water activity in the solvent contributes to the relative physical stability and thus, the resulting form. See Qu H, Louhi-Kultanen M, Kallas J. Solubility and stability of anhydrate/hydrate in solvent mixtures. Int J Pharm. 2006; 321:101-107 and Zhu H, Grant D J W. Influence of water activity in organic solvent+water mixtures on the nature of the crystallizing drug phase. 2. Ampicillin. Int J Pharm. 1996; 139:33-43.

degradation during preparation [1]: less degradation than others
Compound: O=S(=O)(O)O [sulfate]

degradation during preparation [1]: did not degrade during preparation
amount of water absorbed relative to the corresponding bis-hydrogen bromide form ([2]; DVS, FIGS. 8 and 16): about twice the amount of water
Compound: Br.CCS(=O)(=O)c1ccc(CNC(=O)c2cnc3c(c2)CN(C[C@H]2CC[C@H](C(F)(F)F)CC2)[C@H]3C(C)C)nc1 [mono-hydrogen bromide salt]

Second part, the compound before the results:

Compound: CCS(=O)(=O)c1ccc(CNC(=O)c2cnc3c(c2)CN(C[C@H]2CC[C@H](C(F)(F)F)CC2)[C@H]3C(C)C)nc1 [Compound 1]
susceptibility to oxidation ([1]; particularly in solution): highly susceptible to oxidation

Compound: CCS(=O)(=O)c1ccc(CNC(=O)c2cnc3c(c2)CN(C[C@H]2CC[C@H](C(F)(F)F)CC2)[C@H]3C(C)C)nc1 [bis-hydrogen bromide salt]
degradation during preparation [1]: did not degrade during preparation
weight change (moisture uptake) ([2]; DVS isotherm, FIG. 16): ≤ 5%

Compound: adipic acid
composition of isolated salt-screening solid by HPLC-UV ([1]; salt/co-crystal screening of Compound 1): primarily degradants

Compound: CCS(=O)(=O)c1ccc(CNC(=O)c2cnc3c(c2)CN(C[C@H]2CC[C@H](C(F)(F)F)CC2)[C@H]3C(C)C)nc1 [Form D]
solubility in isopropyl acetate/water mixture compared with heptane/water mixture [3]: greater
solubility in IPAc compared with n-heptane ([3]; re-slurry solvents): slightly higher
stability of the hydrate at water activity [4]: stable
moisture uptake compared with the other solid forms ([2]; DVS isotherm plots, FIG. 16 vs FIGS. 4, 8, 12): significantly less moisture update; also recorded: significantly less than the other forms
